Reference: ChEMBL document CHEMBL6127139, “Lysine-Targeted Covalent Inhibitors of PI3Kδ Synthesis and Screening by In Situ Interaction Upgradation” (J Med Chem, 2024)
Activity calls are given as the source filed them. The calls are words filed in the database; no cut-off is given here.

Columns and labels:
SU-DHL-6 [1] = assay: Induction of apoptosis in human SU-DHL-6 cells assessed as early apoptotic cells at 10 uM incubated for 48 hrs by Annexin V-FITC/PI staining based flow cytometric analysis (reference value: 5.02 %); assay type: functional
SU-DHL-6 [2] = assay: Antiproliferative activity against human SU-DHL-6 cells assessed as inhibition of cell viability preincubated for 12 hrs followed by compound washout and measured after 60 hrs by MTT assay; assay type: functional, cell-based
SU-DHL-6 [3] = assay: Induction of apoptosis in human SU-DHL-6 cells assessed as viable cells at 1 uM incubated for 48 hrs by Annexin V-FITC/PI staining based flow cytometric analysis (reference value: 89.81 %); assay type: functional; details: read-out: Activity
Raji = assay: Growth inhibition of human Raji cells incubated for 72 hrs by MTT assay; assay type: functional
[4] = Growth inhibition of PI3Kdelta-overexpressing human Pfeiffer cells incubated for 72 hrs by MTT assay; assay type: functional
SU-DHL-6 [5] = assay: Inhibition of AKT phosphorylation in human SU-DHL-6 cells preincubated for 12 hrs followed by compound washout and measured after 24 hrs by Western blot analysis; assay type: cell-based
SU-DHL-6 [6] = assay: Induction of apoptosis in human SU-DHL-6 cells assessed as viable cells at 10 uM incubated for 48 hrs by Annexin V-FITC/PI staining based flow cytometric analysis (reference value: 89.81 %); assay type: functional; details: read-out: Activity
SU-DHL-6 [7] = assay: Induction of apoptosis in human SU-DHL-6 cells assessed as late apoptotic cells at 1 uM incubated for 48 hrs by Annexin V-FITC/PI staining based flow cytometric analysis (reference value: 4.12 %); assay type: functional
HCT-116 = assay: Growth inhibition of human HCT-116 cells incubated for 72 hrs by MTT assay; assay type: functional
[8] = Growth inhibition of PI3Kdelta-overexpressing human SU-DHL-6 cells incubated for 72 hrs by MTT assay; assay type: functional
MCF7 = assay: Growth inhibition of human MCF7 cells incubated for 72 hrs by MTT assay; assay type: functional
SU-DHL-6 [9] = assay: Induction of apoptosis in human SU-DHL-6 cells assessed as necrotic cells at 1 uM incubated for 48 hrs by Annexin V-FITC/PI staining based flow cytometric analysis (reference value: 1.05 %); assay type: functional
SU-DHL-6 [10] = assay: Inhibition of AKT phosphorylation in human SU-DHL-6 cells preincubated for 12 hrs followed by compound washout and measured upto 72 hrs by Western blot analysis; assay type: cell-based
SU-DHL-6 [11] = assay: Antitumor activity against human SU-DHL-6 cells xenografted in male nude mouse assessed as tumor growth inhibition at 5 mg/kg/day, po administered for 14 days relative to control; assay type: functional; details: SU-DHL-6, 336 h, time 14 day, read-out: TGI
SU-DHL-6 [12] = assay: Induction of apoptosis in human SU-DHL-6 cells assessed as necrotic cells at 10 uM incubated for 48 hrs by Annexin V-FITC/PI staining based flow cytometric analysis (reference value: 1.05 %); assay type: functional
SU-DHL-6 [13] = assay: Induction of apoptosis in human SU-DHL-6 cells assessed as late apoptotic cells at 10 uM incubated for 48 hrs by Annexin V-FITC/PI staining based flow cytometric analysis (reference value: 4.12 %); assay type: functional
SU-DHL-6 [14] = assay: Induction of apoptosis in human SU-DHL-6 cells assessed as early apoptotic cells at 1 uM incubated for 48 hrs by Annexin V-FITC/PI staining based flow cytometric analysis (reference value: 5.02 %); assay type: functional
SU-DHL-6 [15] = assay: Inhibition of AKT phosphorylation in human SU-DHL-6 cells incubated for 24 hrs by Western blot analysis; assay type: cell-based; details: dose 10-1000 nM
SU-DHL-6 [16] = assay: Potency index, ratio of idelalisib GI50 to test compound GI50 for growth inhibition of PI3Kdelta-overexpressing human SU-DHL-6 cells incubated for 72 hrs by MTT assay; assay type: functional
[17] = biological target: T1, Phosphatidylinositol 4,5-bisphosphate 3-kinase catalytic subunit delta isoform (Homo sapiens, UniProt O00329); assay: Inhibition of recombinant PI3Kdelta (unknown origin) using PIP2:3PS as substrate preincubated for 20 mins followed by ATP addition and measured after 1 hrs by ADP-Glo reagent based assay
T1 sequence (O00329 whole entry): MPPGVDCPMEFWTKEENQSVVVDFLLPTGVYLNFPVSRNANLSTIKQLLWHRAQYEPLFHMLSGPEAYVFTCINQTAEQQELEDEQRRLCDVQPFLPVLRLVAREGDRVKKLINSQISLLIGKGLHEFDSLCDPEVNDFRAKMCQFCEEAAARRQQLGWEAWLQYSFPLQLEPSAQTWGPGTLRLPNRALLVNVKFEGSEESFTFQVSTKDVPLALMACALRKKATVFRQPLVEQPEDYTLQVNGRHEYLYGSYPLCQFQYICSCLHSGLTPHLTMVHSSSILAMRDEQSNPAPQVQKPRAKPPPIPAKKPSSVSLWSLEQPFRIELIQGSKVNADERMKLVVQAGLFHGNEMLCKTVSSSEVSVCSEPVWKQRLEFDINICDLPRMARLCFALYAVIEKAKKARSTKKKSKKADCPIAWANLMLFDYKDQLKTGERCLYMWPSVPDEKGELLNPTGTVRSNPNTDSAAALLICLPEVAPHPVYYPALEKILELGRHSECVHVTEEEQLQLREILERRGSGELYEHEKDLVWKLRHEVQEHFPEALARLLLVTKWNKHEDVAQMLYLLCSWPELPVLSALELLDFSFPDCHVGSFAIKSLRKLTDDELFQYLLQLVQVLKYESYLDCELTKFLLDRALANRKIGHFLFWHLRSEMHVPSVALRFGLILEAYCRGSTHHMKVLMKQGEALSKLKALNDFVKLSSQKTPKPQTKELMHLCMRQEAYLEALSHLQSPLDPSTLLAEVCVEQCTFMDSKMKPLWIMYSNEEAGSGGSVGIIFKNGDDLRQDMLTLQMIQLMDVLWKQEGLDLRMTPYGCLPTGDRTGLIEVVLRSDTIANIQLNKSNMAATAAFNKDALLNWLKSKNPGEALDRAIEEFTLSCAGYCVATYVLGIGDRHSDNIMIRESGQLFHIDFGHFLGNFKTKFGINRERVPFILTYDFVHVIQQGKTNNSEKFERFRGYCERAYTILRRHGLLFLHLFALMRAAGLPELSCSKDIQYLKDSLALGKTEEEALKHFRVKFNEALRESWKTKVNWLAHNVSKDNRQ

[18] = Stability of compound in water/acetonitrile solution incubated for 24 hrs by HPLC analysis; assay type: physicochemical; details: buffer
[19] = Selectivity index, ratio of IC50 for inhibition of recombinant PI3Kgamma (unknown origin) using PIP2:3PS as substrate to IC50 for inhibition of recombinant PI3Kdelta (unknown origin) using PIP2:3PS as substrate
[20] = biological target: Phosphatidylinositol 4,5-bisphosphate 3-kinase catalytic subunit beta isoform (Homo sapiens, UniProt P42338); assay: Inhibition of recombinant PI3Kbeta (unknown origin) using PIP2:3PS as substrate preincubated for 20 mins followed by ATP addition and measured after 1 hrs by ADP-Glo reagent based assay
[21] = Chemical reactivity of the compound with N-Boc-Lysine assessed as half-life at 1 uM by HPLC analysis; assay type: physicochemical; details: incubation with N-Boc-Lysine
[22] = biological target: Phosphatidylinositol 4,5-bisphosphate 3-kinase catalytic subunit gamma isoform (Homo sapiens, UniProt P48736); assay: Inhibition of recombinant PI3Kgamma (unknown origin) using PIP2:3PS as substrate preincubated for 20 mins followed by ATP addition and measured after 1 hrs by ADP-Glo reagent based assay
[23] = biological target: T2, Phosphatidylinositol 4,5-bisphosphate 3-kinase catalytic subunit delta isoform (Homo sapiens) (UniProt O00329); assay: Potency index, ratio of idelalisib IC50 to test compound IC50 for inhibition of recombinant PI3Kdelta (unknown origin) using PIP2:3PS as substrate preincubated for 20 mins followed by ATP addition and measured after 1 hrs by ADP-Glo reagent based assay; details: time 80.0 min
T2 sequence (whole entry): T1 sequence (O00329 whole entry)

[24] = Selectivity index, ratio of IC50 for inhibition of recombinant PI3Kbeta (unknown origin) using PIP2:3PS as substrate to IC50 for inhibition of recombinant PI3Kdelta (unknown origin) using PIP2:3PS as substrate
[25] = Selectivity ratio of GI50 for human HCT-116 cells to GI50 for PI3Kdelta overexpressing human SU-DHL-6; assay type: functional
[26] = Stability of compound in PBS at pH 7.4 incubated for 24 hrs at 37 degreeC by HPLC analysis; assay type: physicochemical; details: buffer, pH 7.4, 24 h
[27] = biological target: Phosphatidylinositol 4,5-bisphosphate 3-kinase catalytic subunit alpha isoform (Homo sapiens, UniProt P42336); assay: Inhibition of recombinant PI3Kalpha (unknown origin) using PIP2:3PS as substrate preincubated for 20 mins followed by ATP addition and measured after 1 hrs by ADP-Glo reagent based assay
[28] = Selectivity index, ratio of IC50 for inhibition of recombinant PI3Kalpha (unknown origin) using PIP2:3PS as substrate to IC50 for inhibition of recombinant PI3Kdelta (unknown origin) using PIP2:3PS as substrate
[29] = biological target: T2, Phosphatidylinositol 4,5-bisphosphate 3-kinase catalytic subunit delta isoform (Homo sapiens); assay: Covalent inhibition of PI3Kdelta (unknown origin) using PIP2:3PS as substrate assessed as second order rate constant (Kinact/Ki ratio) incubated upto 180 mins in presence of ATP by ADP-Glo reagent based assay

Chain of Phosphatidylinositol 4,5-bisphosphate 3-kinase catalytic subunit gamma isoform (P48736 whole entry, canonical isoform): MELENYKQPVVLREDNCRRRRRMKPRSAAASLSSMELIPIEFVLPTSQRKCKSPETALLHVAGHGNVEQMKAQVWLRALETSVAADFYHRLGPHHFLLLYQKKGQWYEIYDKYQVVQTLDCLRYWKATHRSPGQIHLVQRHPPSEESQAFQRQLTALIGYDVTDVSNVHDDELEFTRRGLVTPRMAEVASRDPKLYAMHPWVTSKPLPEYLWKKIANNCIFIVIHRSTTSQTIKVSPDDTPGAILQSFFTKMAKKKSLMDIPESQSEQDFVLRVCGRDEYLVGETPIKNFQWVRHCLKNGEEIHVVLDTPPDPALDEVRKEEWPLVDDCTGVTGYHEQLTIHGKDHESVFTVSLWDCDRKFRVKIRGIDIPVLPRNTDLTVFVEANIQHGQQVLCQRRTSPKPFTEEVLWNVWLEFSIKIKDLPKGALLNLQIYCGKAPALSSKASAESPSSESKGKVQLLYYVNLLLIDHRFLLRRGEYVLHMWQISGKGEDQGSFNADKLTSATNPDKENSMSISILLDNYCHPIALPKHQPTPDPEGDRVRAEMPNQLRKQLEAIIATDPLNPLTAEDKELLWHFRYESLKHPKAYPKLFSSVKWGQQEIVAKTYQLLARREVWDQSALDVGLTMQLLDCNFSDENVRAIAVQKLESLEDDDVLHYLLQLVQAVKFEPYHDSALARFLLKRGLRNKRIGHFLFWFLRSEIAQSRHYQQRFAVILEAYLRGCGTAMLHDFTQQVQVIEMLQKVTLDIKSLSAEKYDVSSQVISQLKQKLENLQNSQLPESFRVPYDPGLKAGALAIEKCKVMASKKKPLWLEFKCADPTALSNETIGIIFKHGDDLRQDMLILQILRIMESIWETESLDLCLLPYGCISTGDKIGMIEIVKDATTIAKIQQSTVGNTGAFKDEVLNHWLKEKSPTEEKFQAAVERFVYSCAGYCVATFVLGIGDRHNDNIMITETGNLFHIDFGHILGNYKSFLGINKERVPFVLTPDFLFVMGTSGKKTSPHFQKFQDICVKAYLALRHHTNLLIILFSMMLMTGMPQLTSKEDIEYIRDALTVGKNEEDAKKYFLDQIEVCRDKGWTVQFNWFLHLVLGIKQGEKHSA
Chain of Phosphatidylinositol 4,5-bisphosphate 3-kinase catalytic subunit alpha isoform (P42336 whole entry, canonical isoform): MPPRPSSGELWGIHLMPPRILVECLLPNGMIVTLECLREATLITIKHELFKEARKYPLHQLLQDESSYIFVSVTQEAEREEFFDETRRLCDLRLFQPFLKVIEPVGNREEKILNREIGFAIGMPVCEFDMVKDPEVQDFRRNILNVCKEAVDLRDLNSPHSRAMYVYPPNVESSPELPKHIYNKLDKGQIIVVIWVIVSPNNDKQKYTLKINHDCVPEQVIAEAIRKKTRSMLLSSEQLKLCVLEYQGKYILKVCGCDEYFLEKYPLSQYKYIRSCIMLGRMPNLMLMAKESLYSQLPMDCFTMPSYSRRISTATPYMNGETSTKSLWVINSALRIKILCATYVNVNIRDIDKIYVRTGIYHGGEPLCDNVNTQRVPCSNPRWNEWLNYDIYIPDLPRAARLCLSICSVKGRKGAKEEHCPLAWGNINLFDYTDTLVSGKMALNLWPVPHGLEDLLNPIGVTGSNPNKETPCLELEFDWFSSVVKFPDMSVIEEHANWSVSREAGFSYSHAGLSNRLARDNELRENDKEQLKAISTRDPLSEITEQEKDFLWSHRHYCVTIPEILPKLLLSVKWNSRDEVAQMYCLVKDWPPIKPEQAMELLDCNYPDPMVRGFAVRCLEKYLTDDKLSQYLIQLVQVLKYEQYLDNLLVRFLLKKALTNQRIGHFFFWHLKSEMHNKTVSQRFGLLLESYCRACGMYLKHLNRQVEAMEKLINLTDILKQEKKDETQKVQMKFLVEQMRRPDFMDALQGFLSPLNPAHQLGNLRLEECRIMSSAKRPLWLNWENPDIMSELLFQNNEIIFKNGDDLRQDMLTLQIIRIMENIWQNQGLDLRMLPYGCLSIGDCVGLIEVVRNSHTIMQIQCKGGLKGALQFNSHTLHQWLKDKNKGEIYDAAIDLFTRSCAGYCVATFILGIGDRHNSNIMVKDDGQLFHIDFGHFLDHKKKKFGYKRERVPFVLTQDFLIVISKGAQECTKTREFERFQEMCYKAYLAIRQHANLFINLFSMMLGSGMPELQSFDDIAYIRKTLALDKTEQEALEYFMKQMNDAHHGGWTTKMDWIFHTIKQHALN
Chain of Phosphatidylinositol 4,5-bisphosphate 3-kinase catalytic subunit beta isoform (P42338 whole entry, canonical isoform): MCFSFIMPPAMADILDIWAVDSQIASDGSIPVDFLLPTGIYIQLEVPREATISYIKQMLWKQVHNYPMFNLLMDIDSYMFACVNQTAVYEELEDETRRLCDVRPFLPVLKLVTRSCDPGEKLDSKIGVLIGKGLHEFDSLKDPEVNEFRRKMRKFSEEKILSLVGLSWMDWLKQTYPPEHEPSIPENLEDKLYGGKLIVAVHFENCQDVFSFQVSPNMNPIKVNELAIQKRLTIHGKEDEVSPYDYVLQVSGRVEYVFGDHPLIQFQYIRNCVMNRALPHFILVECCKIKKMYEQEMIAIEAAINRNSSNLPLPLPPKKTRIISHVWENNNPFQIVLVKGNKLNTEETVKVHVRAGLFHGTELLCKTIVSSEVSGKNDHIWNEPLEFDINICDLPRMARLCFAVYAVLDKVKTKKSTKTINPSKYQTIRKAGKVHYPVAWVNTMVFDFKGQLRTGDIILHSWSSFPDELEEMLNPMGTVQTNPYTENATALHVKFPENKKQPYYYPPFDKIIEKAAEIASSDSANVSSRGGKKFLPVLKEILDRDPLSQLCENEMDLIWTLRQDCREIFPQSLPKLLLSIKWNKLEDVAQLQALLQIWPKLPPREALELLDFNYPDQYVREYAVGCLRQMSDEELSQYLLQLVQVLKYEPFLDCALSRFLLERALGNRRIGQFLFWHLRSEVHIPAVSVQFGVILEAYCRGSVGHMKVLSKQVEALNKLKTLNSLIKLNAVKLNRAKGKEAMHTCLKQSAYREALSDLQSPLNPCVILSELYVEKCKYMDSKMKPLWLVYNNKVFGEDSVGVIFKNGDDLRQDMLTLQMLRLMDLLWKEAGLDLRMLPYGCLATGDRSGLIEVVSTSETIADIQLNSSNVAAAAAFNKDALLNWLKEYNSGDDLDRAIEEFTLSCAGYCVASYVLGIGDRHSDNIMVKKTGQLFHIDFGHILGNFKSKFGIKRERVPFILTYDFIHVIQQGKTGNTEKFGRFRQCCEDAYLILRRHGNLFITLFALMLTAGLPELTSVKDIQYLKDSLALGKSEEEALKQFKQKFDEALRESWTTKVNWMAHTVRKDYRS

Structure (SMILES)	Activity (SU-DHL-6 [2])	GI50 (Raji) [µM]	GI50 [4] [µM]	inhibition (SU-DHL-6 [5])	GI50 (HCT-116) [µM]	GI50 [8] [µM]	GI50 (MCF7) [µM]	inhibition (SU-DHL-6 [10])	IC50 [17] [µM]	Ratio IC50 [19]	IC50 [20] [µM]	half-life at 1 µM [21] [h]	IC50 [22] [µM]	Ratio IC50 [24]	IC50 [27] [µM]	Ratio IC50 [28]	further results
CC[C@H](Nc1ncnc2[nH]cnc12)c1nc2cccc(F)c2c(=O)n1-c1ccccc1 [IDELALISIB]	inactive	> 10	8.33	inactive	> 10	0.2	> 10	inactive	–	–	–	–	–	–	–	–	Activity (SU-DHL-6 [1]): 13.29%; viability at 1 µM (SU-DHL-6 [3]): 87%; viability at 10 µM (SU-DHL-6 [6]): 79.4%; Activity (SU-DHL-6 [7]): 3.46%; Activity (SU-DHL-6 [9]): 0.8%; inhibition in vivo at 5 mg/kg/day (SU-DHL-6 [11]): 50%; Activity (SU-DHL-6 [12]): 0.6%; Activity (SU-DHL-6 [13]): 6.75%; Activity (SU-DHL-6 [14]): 6.76%
COc1ncc(-c2ccc3ncnc(N[C@H]4CCN(C(=O)C5CCOCC5)C4)c3c2)cc1C(=O)Oc1ccccc1	Active	8.2	0.195	Active	1.9	0.003	> 10	Active	0.00053	> 1000	0.155	2.4	0.656	292	0.066	124	inhibition (SU-DHL-6 [15]): Dose-Dependent Effect; RatioGI50 (SU-DHL-6 [16]): ~10; Stability [18]: Stable; Ratio IC50 [23]: 10; RatioGI50 [25]: 2500; Stability [26]: Stable
COc1ncc(-c2ccc3ncnc(N[C@H]4CCN(C(=O)C5CCOCC5)C4)c3n2)cc1C(=O)Oc1ccc(F)cc1	Active	6.61	0.097	Active	2.14	0.004	6.33	Active	0.00445	14	0.241	0.917	0.0637	–	0.0141	3	–
COc1ncc(-c2cc(-c3ncc(CN4CCN(C(C)C)CC4)o3)c3cn[nH]c3c2)cc1C(=O)Oc1ccc(F)cc1	–	–	–	–	–	–	–	–	–	–	–	–	–	–	–	–	Ratio [29]: 3.75 10^4/M/s
COc1ncc(-c2ccc3ncnc(N[C@H]4CCN(C(=O)C5CCOCC5)C4)c3c2)cc1C(=O)Oc1ccc(F)cc1	Active	7.59	0.13	Active	1.52	0.003	> 10	Active	0.00224	92	0.03	1.12	0.208	13	0.0256	11	–
